# Results taken from PubChem BioAssay (NCI).
#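 The compound was tested at five concentrations on cells cultured in 96-well plates, with a 48-hour exposure period. The concentration for 50% growth inhibition is given as GI50. TGI: total growth inhibition.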
# Experiments:
# Assay in all cases: NCI anticancer screen, dose series, 48 h
# [1] = test system: A549 NSCLC
# [2] = test system: ACHN renal
# [3] = test system: EKVX NSCLC
# [4] = test system: HCT-116 colon
# [5] = test system: HT29 colon
# [6] = test system: K-562 leukemia
# [7] = test system: NCI-H226 lung
# [8] = test system: NCI-H23 lung
# [9] = test system: NCI-H460 lung
# [10] = test system: NCI-H522 lung
Compound,TGI [1] [µM],TGI [2] [µM],TGI [3] [µM],TGI [4] [µM],TGI [5] [µM],TGI [6] [µM],TGI [7] [µM],TGI [8] [µM],TGI [9] [µM],TGI [10] [µM],GI50 [1] [µM],GI50 [2] [µM],GI50 [3] [µM],GI50 [4] [µM],GI50 [5] [µM],GI50 [6] [µM],GI50 [7] [µM],GI50 [8] [µM],GI50 [9] [µM],GI50 [10] [µM]
NNC(=O)CC(=O)Nc1ccccc1F,> 100,> 100,> 100,> 100,> 100,> 100,> 100,> 100,> 100,> 100,–,–,–,–,–,–,–,–,–,–
C#CCOCn1cnc2ncnc(Cl)c21,> 100,> 100,> 100,> 100,> 100,> 100,> 100,> 100,> 100,> 100,–,–,–,–,–,–,–,–,–,–
C[C@@H]1CN(Cc2ccc(/C=C/c3n[nH]c4ccc5nc(-c6cn[nH]c6C(F)(F)F)c6c(c5c34)CCCC6)cc2)C[C@H](C)O1,15,13.7,17.3,11.3,7.82,24.7,32.8,21.7,10.2,16.2,2.56,2.57,3.7,1.37,2.77,2.81,6.19,5.71,1.35,2.02
Nc1c(C(=O)Nc2cccc3ccccc23)sc2nc3c(cc12)CCCC3,> 100,> 100,> 100,> 100,> 100,> 100,> 100,> 100,> 100,4.6,3.33,4.37,4.47,0.8,1.18,0.349,17.5,3.43,2.98,0.417
CC(C)(C)c1ccc(C(=O)N/N=C/c2ccc(O)cc2O)cc1,35,7.74,11.8,11.5,8.33,20.1,5.75,13.3,1.88,14,0.594,0.334,0.356,0.281,0.885,0.476,0.412,0.839,0.32,1.2
Cc1ccc(C(=O)Nc2ccc(CN3CCN(C)CC3)c(C(F)(F)F)c2)cc1C#Cc1cncc2ncccc12,5.24,0.999,16.7,3.87,1.41,1.67,6.19,15.1,5.02,15.6,0.473,0.162,1.12,0.274,0.142,–,0.625,0.894,0.428,0.323
COC(=O)[C@]12CC[C@@H](C)[C@H](C)[C@@H]1C1=CC[C@@H]3[C@@]4(C)C(c5ncon5)=C[C@@](C)(CO)C4=CC[C@@]3(C)[C@]1(C)CC2,15.5,3.56,4.37,3.2,3.88,4.82,4.4,4.52,3.95,3.57,4.48,1.9,2.02,1.68,1.94,2.22,1.99,2.01,1.97,1.71
Cc1cc(N(CCCNc2ccnc3cc(Cl)ccc23)Cc2cccs2)nc(Cl)n1,23.1,19.7,27.2,12.8,12.4,12.2,31.1,16.7,18.3,18.7,7.11,5.12,3.72,1.08,1.51,0.743,10.2,1.3,4.03,2.9
O=C(Cc1ccc(/C=C/C(=O)c2ncc[nH]2)cc1)Nc1ccc(Br)cc1,> 16.7,5.25,> 16.7,2.54,3.71,> 16.7,10.1,8.5,8.66,7.34,6.06,2.72,4.58,0.847,0.726,0.745,3.31,2.2,2.77,2.76
CC(C)[C@@H](C(=O)O[C@@H]1/C=C/C(=O)O[C@@H](C)CCC/C=C/[C@@H]2C[C@H](O)C[C@H]21)[N+](C)(C)C,> 100,> 100,> 100,> 100,> 100,> 100,> 100,> 100,> 100,> 100,> 100,> 100,> 100,> 100,> 100,> 100,> 100,> 100,> 100,> 100
N#Cc1cc2cc3c4c(c2oc1=O)CCCN4CCC3,> 100,> 100,> 100,> 100,> 100,> 100,> 100,> 100,> 100,> 100,–,–,–,–,–,–,–,–,–,–
Cn1c2ccccc2c2cc(-c3ccccc3)c3c(c21)C(=O)C=CC3=O,> 100,41.3,> 100,41.4,42.7,> 70.6,76.7,42.6,45.5,34.5,–,–,–,–,–,–,–,–,–,–
CC1OC(OC2C(OC3C[C@@]4(C)C(C[C@H](O)[C@H]5[C@H](C6(C)CCC(C(C)(C)O)O6)CCC54C)[C@]4(C)CC[C@@H](O)C(C)(C)C34)OC(CO)C(O)C2O)C(O)C(O)C1O (some centres undefined) (tested in a mixture with another compound),> 100,> 100,> 100,> 100,> 100,> 100,> 100,> 100,> 100,> 100,–,–,–,–,–,–,–,–,–,–
CC1=C(C(=O)Nc2ccccc2C)C(c2ccc(N(C)C)cc2)C(C(=O)Nc2ccccc2C)=C(C)N1,> 100,> 100,> 100,> 100,> 100,> 100,> 100,> 100,> 100,> 100,–,–,–,–,–,–,–,–,–,–
COc1ccc2nc(-c3ccccc3)cc(Nc3ccc(/C(C)=N/O)cc3)c2c1,32,29.3,> 100,2.85,> 100,> 100,4.39,> 20.9,> 23.3,> 24.6,3.42,14.1,3.02,1.52,2.7,2.2,1.95,2.51,2.8,14.9
